Assay results: patent US20170190705A1, “Compositions and Methods for Inhibiting BMP” (THE BRIGHAM AND WOMAN'S HOSPITAL, INC., priority 2014, published 2017)

Columns and labels:
Type in all cases: biochemical
PRKX = target: T1, PRKX (Homo sapiens, UniProt P51817); test: Kinome profiling PRKX; details: read-out: Inhibitory activity PRKX; for inhibition at 0.1 µM: 100 nM
T1 sequence (P51817 1-358): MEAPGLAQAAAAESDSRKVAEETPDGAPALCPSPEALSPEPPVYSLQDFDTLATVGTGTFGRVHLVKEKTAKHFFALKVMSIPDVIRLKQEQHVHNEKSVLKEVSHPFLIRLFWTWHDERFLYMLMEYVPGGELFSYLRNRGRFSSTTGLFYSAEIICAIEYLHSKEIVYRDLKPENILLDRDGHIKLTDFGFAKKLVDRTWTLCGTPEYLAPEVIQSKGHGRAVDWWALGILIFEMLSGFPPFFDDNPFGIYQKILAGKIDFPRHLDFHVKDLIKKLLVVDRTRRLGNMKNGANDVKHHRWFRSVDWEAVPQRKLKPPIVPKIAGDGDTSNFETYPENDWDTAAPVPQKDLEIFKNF
Protocol: (§1) . The kinome-wide selectivity was determined following the methods previously reported by Mohedas et al., ACS Chem Biol 2013, 8, 1291-1302 and Sanvitale et al., PLoS One 2013, 8, e62721.

MNK2 = MNK2 (Homo sapiens, UniProt Q9HBH9); test: Kinome profiling MNK2; details: read-out: Inhibitory activity MNK2; for inhibition at 0.1 µM: 100 nM
Protocol: as §1

EPHB4 = target: T2, EPHB4 (Homo sapiens, UniProt P54760); test: Kinome profiling EPHB4; details: read-out: Inhibitory activity EPHB4; for inhibition at 0.1 µM: 100 nM
T2 sequence (P54760 16-987): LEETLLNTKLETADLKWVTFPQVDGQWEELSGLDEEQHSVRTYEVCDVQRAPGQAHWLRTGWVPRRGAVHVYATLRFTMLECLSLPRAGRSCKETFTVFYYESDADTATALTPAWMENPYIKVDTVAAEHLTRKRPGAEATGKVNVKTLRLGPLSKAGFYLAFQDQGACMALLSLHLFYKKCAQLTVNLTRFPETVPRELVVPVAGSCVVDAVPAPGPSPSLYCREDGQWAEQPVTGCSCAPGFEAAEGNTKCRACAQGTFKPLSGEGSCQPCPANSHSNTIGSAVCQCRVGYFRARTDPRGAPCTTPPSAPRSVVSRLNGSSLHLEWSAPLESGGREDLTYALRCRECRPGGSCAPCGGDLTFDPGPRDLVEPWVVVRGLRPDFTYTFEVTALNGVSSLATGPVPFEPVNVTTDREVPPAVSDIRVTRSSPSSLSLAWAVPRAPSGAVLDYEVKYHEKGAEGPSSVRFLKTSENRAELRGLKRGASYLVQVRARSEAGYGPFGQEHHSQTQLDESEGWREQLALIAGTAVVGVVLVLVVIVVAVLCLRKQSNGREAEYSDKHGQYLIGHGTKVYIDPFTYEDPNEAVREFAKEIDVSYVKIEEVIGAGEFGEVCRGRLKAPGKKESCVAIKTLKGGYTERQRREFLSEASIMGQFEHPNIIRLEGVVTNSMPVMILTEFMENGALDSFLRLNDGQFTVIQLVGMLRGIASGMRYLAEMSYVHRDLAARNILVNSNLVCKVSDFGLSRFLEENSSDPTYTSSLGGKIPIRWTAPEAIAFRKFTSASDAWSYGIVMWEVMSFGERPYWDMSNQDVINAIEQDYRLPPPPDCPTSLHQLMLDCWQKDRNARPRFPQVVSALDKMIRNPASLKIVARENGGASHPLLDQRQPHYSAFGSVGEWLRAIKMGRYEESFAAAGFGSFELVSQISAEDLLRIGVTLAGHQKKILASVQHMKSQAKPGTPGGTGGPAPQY
Protocol: as §1

LOK = LOK (Homo sapiens, UniProt O94804); test: Kinome profiling LOK; details: read-out: Inhibitory activity LOK; for inhibition at 0.1 µM: 100 nM
Protocol: as §1

INSR = INSR (Homo sapiens, UniProt P06213); test: Kinome profiling INSR; details: read-out: Inhibitory activity INSR; for inhibition at 0.1 µM: 100 nM
Protocol: as §1

MARK4 = target: T3, MARK4 (Homo sapiens, UniProt Q96L34); test: Kinome profiling MARK4; details: read-out: Inhibitory activity MARK4; for inhibition at 0.1 µM: 100 nM
T3 sequence (Q96L34 1-752): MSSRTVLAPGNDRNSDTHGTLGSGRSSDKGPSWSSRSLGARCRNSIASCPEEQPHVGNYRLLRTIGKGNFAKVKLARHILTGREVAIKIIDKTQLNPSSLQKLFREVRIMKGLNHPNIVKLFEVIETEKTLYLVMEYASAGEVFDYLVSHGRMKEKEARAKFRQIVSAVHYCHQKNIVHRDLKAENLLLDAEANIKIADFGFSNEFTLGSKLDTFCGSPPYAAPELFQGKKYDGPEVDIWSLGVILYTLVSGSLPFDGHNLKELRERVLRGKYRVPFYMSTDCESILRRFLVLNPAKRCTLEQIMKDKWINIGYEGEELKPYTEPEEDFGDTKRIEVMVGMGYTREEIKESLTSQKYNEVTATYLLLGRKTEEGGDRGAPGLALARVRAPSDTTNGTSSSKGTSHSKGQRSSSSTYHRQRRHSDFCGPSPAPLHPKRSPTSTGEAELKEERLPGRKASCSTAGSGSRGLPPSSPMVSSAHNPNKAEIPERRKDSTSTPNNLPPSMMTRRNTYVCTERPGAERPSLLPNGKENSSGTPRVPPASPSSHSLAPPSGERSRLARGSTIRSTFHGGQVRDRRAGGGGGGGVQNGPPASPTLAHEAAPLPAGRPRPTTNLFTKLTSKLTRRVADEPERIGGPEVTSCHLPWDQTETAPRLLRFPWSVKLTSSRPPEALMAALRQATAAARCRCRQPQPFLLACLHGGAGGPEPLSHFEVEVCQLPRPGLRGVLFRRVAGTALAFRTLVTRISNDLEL
Protocol: as §1

Sequence of INSR (P06213 28-1382): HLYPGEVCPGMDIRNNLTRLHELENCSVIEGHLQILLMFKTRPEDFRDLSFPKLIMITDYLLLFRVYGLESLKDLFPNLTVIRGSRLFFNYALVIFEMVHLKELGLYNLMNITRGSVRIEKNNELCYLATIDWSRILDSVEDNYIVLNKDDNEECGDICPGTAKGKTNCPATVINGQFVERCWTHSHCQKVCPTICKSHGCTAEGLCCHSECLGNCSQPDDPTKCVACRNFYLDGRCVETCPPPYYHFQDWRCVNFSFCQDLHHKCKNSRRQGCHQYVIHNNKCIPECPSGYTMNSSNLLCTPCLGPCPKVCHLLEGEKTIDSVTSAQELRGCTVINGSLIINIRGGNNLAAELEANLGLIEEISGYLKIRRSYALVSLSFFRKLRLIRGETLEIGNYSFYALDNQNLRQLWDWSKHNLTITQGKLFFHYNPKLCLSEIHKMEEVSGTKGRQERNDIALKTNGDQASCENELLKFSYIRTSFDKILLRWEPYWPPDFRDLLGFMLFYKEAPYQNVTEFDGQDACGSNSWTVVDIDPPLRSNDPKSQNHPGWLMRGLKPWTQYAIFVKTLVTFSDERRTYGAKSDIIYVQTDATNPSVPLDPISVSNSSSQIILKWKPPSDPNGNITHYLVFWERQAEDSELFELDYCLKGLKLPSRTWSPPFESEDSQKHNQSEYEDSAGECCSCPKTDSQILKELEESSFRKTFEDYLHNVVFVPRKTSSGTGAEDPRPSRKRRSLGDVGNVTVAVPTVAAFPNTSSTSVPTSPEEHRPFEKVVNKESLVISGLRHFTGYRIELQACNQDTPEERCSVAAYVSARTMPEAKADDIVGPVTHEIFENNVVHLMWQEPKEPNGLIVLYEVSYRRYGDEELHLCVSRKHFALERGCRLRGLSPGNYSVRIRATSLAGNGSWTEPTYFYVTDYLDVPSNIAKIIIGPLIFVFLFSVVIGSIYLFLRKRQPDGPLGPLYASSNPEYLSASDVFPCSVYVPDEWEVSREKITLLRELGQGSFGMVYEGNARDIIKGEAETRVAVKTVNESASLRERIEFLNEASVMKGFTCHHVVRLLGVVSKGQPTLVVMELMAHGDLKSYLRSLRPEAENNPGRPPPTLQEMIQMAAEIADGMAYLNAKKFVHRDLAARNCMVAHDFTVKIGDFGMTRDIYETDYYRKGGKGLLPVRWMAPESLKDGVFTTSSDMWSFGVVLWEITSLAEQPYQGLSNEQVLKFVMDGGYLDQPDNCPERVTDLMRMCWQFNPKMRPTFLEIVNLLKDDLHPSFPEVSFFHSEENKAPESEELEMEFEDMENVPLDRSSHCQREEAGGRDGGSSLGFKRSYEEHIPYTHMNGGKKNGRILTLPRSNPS
Sequence of LOK (O94804 whole entry): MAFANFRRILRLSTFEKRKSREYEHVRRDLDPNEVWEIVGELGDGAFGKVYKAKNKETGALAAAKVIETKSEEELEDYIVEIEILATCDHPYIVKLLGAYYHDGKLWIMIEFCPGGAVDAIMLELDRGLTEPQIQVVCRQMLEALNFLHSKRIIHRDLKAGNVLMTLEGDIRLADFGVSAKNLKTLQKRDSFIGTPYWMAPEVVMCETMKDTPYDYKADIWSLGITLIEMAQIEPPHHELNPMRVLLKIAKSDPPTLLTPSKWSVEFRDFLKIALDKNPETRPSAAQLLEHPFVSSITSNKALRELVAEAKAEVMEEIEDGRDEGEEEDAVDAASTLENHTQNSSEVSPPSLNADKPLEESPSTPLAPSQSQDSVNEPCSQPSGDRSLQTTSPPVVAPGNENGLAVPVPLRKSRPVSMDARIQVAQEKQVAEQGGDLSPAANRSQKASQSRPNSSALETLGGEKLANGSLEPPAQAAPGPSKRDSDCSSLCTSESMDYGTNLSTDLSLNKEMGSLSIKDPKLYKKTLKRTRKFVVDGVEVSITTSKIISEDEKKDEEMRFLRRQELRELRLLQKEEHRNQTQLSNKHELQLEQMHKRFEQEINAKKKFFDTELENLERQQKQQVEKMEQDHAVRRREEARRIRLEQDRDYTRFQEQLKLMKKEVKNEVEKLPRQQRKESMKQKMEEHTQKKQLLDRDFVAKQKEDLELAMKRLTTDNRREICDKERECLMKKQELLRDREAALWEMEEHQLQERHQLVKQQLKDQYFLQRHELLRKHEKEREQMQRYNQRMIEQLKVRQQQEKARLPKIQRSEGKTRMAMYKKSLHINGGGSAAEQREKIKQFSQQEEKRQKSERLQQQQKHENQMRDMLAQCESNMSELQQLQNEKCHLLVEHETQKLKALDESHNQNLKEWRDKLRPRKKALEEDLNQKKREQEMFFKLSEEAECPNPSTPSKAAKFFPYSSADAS
Sequence of MNK2 (Q9HBH9 whole entry): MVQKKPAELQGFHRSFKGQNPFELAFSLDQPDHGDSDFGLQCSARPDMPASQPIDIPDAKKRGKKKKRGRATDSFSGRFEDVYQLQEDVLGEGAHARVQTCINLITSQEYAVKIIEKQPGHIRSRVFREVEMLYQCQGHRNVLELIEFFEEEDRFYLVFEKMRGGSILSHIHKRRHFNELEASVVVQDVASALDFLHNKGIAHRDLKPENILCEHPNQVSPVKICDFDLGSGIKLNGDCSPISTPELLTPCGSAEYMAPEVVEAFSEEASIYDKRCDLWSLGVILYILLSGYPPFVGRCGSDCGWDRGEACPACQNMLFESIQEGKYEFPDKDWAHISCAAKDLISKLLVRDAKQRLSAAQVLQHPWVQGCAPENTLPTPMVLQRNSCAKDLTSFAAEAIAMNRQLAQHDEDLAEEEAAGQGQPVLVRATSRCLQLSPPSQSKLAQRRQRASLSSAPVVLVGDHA

| Compound | inhibition at 0.1 µM (PRKX) [%] | inhibition at 1 µM (PRKX) [%] | inhibition at 0.1 µM (MNK2) [%] | inhibition at 1 µM (MNK2) [%] | inhibition at 0.1 µM (EPHB4) [%] | inhibition at 1 µM (EPHB4) [%] | inhibition at 0.1 µM (LOK) [%] | inhibition at 1 µM (LOK) [%] | inhibition at 0.1 µM (INSR) [%] | inhibition at 1 µM (INSR) [%] | inhibition at 0.1 µM (MARK4) [%] | inhibition at 1 µM (MARK4) [%] |
| --- | --- | --- | --- | --- | --- | --- | --- | --- | --- | --- | --- | --- |
| COc1cc(-c2cc(-c3ccc(N4CCNCC4)cc3)cnc2C)cc(OC)c1OC [Compound 10, 1-(4-(6-methyl-5-(3,4,5-trimethoxyphenyl)pyridin-3-yl)phenyl)piperazine] | 0 | 1 | 6 | 6 | 5 | 8 | 9 | 47 | 3 | 3 | 1 | 2 |
| COc1cc(-c2cc(-c3ccc(N4CCNCC4)cc3)cnc2N)cc(OC)c1OC [Compound 15, 5-(4-(piperazin-1-yl)phenyl)-3-(3,4,5-trimethoxyphenyl)pyridin-2-amine] | 1 | 0 | 1 | 7 | 7 | 45 | 32 | 73 | 4 | 8 | 5 | 40 |
